Source: patent US20240174674A1, “NITROGEN-CONTAINING POLYCYCLIC FUSED RING COMPOUND, PHARMACEUTICAL COMPOSITION THEREOF, PREPARATION METHOD THEREFOR, AND USE THEREOF” (APPLIED PHARMACEUTICAL SCIENCE, INC., priority 2021, published 2024)
Like-named read-outs stand apart in the source and are kept apart here.

Target: RET G810R (Homo sapiens (Human), UniProt P07949, G810R)
Experiment: HTRF KinEASE-TK kinase activity test, RET G810R
Conditions: for inhibitory activity against RET G810R relative to that of selpercatinib (LOXO-292): fold versus selpercatinib (LOXO-292)
[1] = read-out: RET G810R IC50, HTRF kinase assay

Sequence of RET G810R (P07949 29-1114 G810R): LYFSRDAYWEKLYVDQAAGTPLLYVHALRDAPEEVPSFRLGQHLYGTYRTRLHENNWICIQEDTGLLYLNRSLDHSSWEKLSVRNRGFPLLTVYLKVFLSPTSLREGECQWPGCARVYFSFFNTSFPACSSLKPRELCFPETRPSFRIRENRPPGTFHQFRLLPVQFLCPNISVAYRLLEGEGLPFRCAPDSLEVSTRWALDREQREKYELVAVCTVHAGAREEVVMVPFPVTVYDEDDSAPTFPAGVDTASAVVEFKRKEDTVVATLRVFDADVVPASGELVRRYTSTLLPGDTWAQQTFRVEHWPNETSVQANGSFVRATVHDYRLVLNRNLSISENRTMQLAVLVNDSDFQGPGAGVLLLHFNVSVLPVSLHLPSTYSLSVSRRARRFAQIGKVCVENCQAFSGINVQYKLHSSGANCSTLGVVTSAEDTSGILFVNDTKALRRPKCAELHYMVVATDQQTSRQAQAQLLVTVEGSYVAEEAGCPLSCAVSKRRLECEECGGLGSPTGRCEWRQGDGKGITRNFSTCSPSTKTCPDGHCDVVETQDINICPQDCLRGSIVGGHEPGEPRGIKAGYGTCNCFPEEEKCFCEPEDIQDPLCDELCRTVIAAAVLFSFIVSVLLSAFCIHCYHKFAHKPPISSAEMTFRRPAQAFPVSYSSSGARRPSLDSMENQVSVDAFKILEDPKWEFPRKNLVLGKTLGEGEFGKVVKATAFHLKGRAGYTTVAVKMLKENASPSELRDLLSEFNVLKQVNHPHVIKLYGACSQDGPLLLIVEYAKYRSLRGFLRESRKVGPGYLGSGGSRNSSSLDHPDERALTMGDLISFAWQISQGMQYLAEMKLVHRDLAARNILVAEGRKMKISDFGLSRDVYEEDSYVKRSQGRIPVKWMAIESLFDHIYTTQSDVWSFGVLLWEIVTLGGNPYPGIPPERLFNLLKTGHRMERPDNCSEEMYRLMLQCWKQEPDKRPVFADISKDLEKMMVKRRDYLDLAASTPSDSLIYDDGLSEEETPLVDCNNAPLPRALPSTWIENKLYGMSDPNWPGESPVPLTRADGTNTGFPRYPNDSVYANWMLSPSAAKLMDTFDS

| SMILES | IC50 [1] | inhibitory activity against RET G810R relative to that of selpercatinib (LOXO-292) | IC50 |
| --- | --- | --- | --- |
| CCOc1cc(-c2ccc(N3CC4CCC(C3)N4Cc3ccc(OC)nc3)nc2)c2c3cn[nH]c3nn2c1 [Compound 156, 6-ethoxy-4-(6-((1R,5S)-8-((6-methoxypyridin-3-yl)methyl)-3,8-diazabicyclo[3.2.1]octan-3-yl)pyridin-3-yl)-1H-pyrazolo[3′,4′:3,4]pyrazolo[1,5-α]pyrazole] | 11.4 nM | – | – |
| COc1ccc(CN2C3CC2CN(c2ccc(-c4cc(P(C)(C)=O)cn5nc6[nH]ncc6c45)cn2)C3)cn1 [Compound 237, (4-(6-(6-((6-methoxypyridin-3-yl)methyl)-3,6-diazabicyclo[3.1.1]heptan-3-yl)pyridin-3-yl)-1H-pyrazolo[3′,4′:3,4]pyrazolo[1,5-α]pyridin-6-yl)dimethylphosphine oxide] | 112 nM | – | – |
| CCOc1cc(-c2cnc(N3CCC(C)(NC(=O)c4ncc(F)cc4Cl)CC3)cn2)c2c3cn[nH]c3nn2c1 [Compound 55, 3-chloro-N-(1-(5-(6-ethoxy-1H-pyrazolo[3′,4′:3,4]pyrazolo[1,5-α]pyridin-4-yl)pyrazin-2-yl)-4-methylpiperidin-4-yl)-5-fluoro-2-picolinamide] | 4.5 nM | – | – |
| C=CC(=O)N1C2CC1CN(c1ccc(-c3cc(OCC)cn4nc5[nH]ncc5c34)cn1)C2 [Compound 250, 1-(3-(5-(6-ethoxy-1H-pyrazolo[3′,4′:3,4]pyrazolo[1,5-α]pyridin-4-yl)pyridin-2-yl)-3,6-diazabicyclo[3.1.1]heptan-6-yl)prop-2-en-1-one] | 40.8 nM | – | – |
| CCOc1cc(-c2ccc(N3C[C@H]4CN(Cc5ccc(OC)nc5)C[C@H]4C3)nc2)c2c3cn[nH]c3nn2c1 [Compound 152, 6-ethoxy-4-(6-((3aR,6aS)-5-((6-methoxypyridin-3-yl)methylene)-hexahydropyrrolo[3,4-c]pyrrol-2(1H)-yl)pyridin-3-yl)-1H-pyrazolo[3′,4′:3,4]pyrazolo[1,5-α]pyridine] | 4.1 nM | – | – |
| CCOc1cc([C@H]2CC[C@](OC)(C(=O)N[C@@H](C)c3ccc(-n4cc(F)cn4)nc3)CC2)c2c3cn[nH]c3nn2c1 [Compound 258, (1S,4R)-4-(6-ethoxy-1H-pyrazolo[3′,4′:3,4]pyrazolo[1,5-α]pyridin-4-yl)-N—((S)-1-(6-(4-fluoro-1H-pyrazol-1-yl)pyridin-3-yl)ethyl)-1-methoxycyclohexane-1-carboxamide] | 9.9 nM | – | – |
| CCOc1cc(-c2ccc(N3CCC(CN4CCC4)(C(=O)NCC(C)C)CC3)nc2)c2c3cn[nH]c3nn2c1 [Compound 36, 4-(azetidin-1-ylmethyl)-1-(5-(6-ethoxy-1H-pyrazolo[3′,4′:3,4]pyrazolo[1,5-α]pyridin-4-yl)pyridin-2-yl)-N-isobutylpiperidine-4-carboxamide] | 5.7 nM | – | – |
| CCOc1cc(-c2ccc(N3CCC(C)(S(=O)(=O)CC(C)C)CC3)nc2)c2c3cn[nH]c3nn2c1 [Compound 33, 6-ethoxy-4-(6-(4-(isobutylsulfonyl)-4-methylpiperidin-1-yl)pyridin-3-yl)-1H-pyrazolo[3′,4′:3,4]p yrazolo[1,5-α]pyridine] | 2.5 nM | ≥ 10 times | – |
| CCOc1cc(-c2ccc(N3CC4CCC3CN4Cc3ccc(OC)nc3)nc2)c2c3cn[nH]c3nn2c1 (stereo not drawn) [Compound 160, 6-ethoxy-4-(6-(5-((6-methoxypyridin-3-yl)methyl)-2,5-diazabicyclo[2.2.2]octan-2-yl)pyridin-3-y 1)-1H-pyrazolo[3′,4′:3,4]pyrazolo[1,5-α]pyridine] | 8.2 nM | – | – |
| CCOc1cc(-c2ccc(N3CCC(CN(C)C)(C(=O)NCC(C)C)CC3)nc2)c2c3cn[nH]c3nn2c1 [Compound 35, 4-((dimethylamino)methyl)-1-(5-(6-ethoxy-1H-pyrazolo[3′,4′:3,4]pyrazolo[1,5-α]pyridin-4-yl)pyridin-2-yl)-N-isobutylpiperidine-4-carboxamide] | 5.1 nM | – | – |
| CCOc1cc(-c2ccc(N3C4CCC3CN(C(=O)c3c(F)cccc3Cl)C4)nc2)c2c3cn[nH]c3nn2c1 [Compound 157, (2-chloro-6-fluoro)((1R,5S)-8-(5-(6-ethoxy-1H-pyrazolo[3′,4′:3,4]pyrazolo[1,5-α]pyridin-4-yl)pyridin-2-yl)-3,8-diazabicyclo[3.2.1]octan-3-yl)benzamide] | 8.6 nM | – | – |
| CCOc1cc(-c2ccc(N3CC4CC(C3)N4Cc3ccc(OC)nc3)nc2)c2c3cc[nH]c3nn2c1 [Compound 297, 6-ethoxy-4-(6-(6-((6-methoxypyridin-3-yl)methyl)-3,6-diazabicyclo[3.1.1]heptan-3-yl)pyridin-3-yl)-1H-pyrrolo[2′,3′:3,4]pyrazolo[1,5-α]pyridine] | – | – | 9.6 nM |

The next lines start with the values.

| IC50 [1] | inhibitory activity against RET G810R relative to that of selpercatinib (LOXO-292) | IC50 | SMILES |
| --- | --- | --- | --- |
| 6.6 nM | – | – | CCOc1cc(-c2ccc(N3CCC(S(=O)(=O)NC(C)C)CC3)nc2)c2c3cn[nH]c3nn2c1 [Compound 101, 1-(5-(6-ethoxy-1H-pyrazolo[3′,4′:3,4]pyrazolo[1,5-α]pyridin-4-yl)pyridin-2-yl)-N-isopropylpiperidine-4-sulfonamide] |
| 4.2 nM | – | – | CCOc1cc(-c2ccc(N3CC[C@H](NC(=O)c4ncccc4C(F)(F)F)[C@H](O)C3)nc2)c2c3cn[nH]c3nn2c1 [Compound 284, N-((3R,4S)-1-(5-(6-ethoxy-1H-pyrazolo[3′,4′:3,4]pyrazolo[1,5-α]pyridin-4-yl)pyridin-2-yl)-3-hydroxypiperidin-4-yl)-3-(trifluoromethyl)picolinamide] |
| 10.3 nM | – | – | CCOc1cc(-c2ccc(N3CC[C@H](NC(=O)c4ncccc4F)[C@H](O)C3)nc2)c2c3cn[nH]c3nn2c1 [Compound 286, N-((3R,4S)-1-(5-(6-ethoxy-1H-pyrazolo[3′,4′:3,4]pyrazolo[1,5-α]pyridin-4-yl)pyridin-2-yl)piperidin-3-hydroxypiperidin-4-yl)-3-fluoropicolinamide] |
| 17.9 nM | – | – | CCOc1cc(-c2cnc(N3CC[C@H](NC(=O)c4ncccc4Cl)[C@@H](O)C3)cn2)c2c3cn[nH]c3nn2c1 [Compound 50] |
| 8.7 nM | – | – | CCOc1cc(-c2ccc(N3CCC(Oc4ccc(OC)nn4)CC3)nc2)c2c3cn[nH]c3nn2c1 [Compound 8] |
| 3.6 nM | ≥ 10 times | – | CCOc1cc(-c2ccc(N3CCC(O)(CNS(=O)(=O)c4ccccc4)CC3)nc2)c2c3cn[nH]c3nn2c1 [Compound 102, N-((1-(5-(6-ethoxy-1H-pyrazolo[3′,4′:3,4]pyrazolo[1,5-α]pyridin-4-yl)pyridin-2-yl)-4-hydroxypiperidin-4-yl)methylene)benzenesulfonamide] |
| 5.2 nM | – | – | CCOc1cc(-c2ccc(N3CC[C@H](NC(=O)c4ncccc4C(F)(F)F)[C@@H](O)C3)nc2)c2c3cn[nH]c3nn2c1 [Compound 45] |
| 1.8 nM | ≥ 10 times | – | O=C(N[C@H]1CCN(c2ccc(-c3cc(OCC(F)F)cn4nc5[nH]ncc5c34)cn2)C[C@H]1O)c1c(F)cccc1Cl [Compound 292, N-((3R,4S)-1-(5-(6-(2,2-difluoroethoxy)-1H-pyrazolo[3′,4′:3,4]pyrazolo[1,5-α]pyridin-4-yl)pyridin-2-yl)piperidin-3-hydroxypiperidin-4-yl)-2-chloro-6-fluorobenzamide] |
| 2.1 nM | ≥ 10 times | – | CCOc1cc(-c2ccc(N3CC[C@H](NC(=O)c4ccccc4C#N)[C@H](O)C3)nc2)c2c3cn[nH]c3nn2c1 [Compound 280, 2-cyano-N-((3R,4S)-1-(5-(6-ethoxy-1H-pyrazolo[3′,4′:3,4]pyrazolo[1,5-α]pyridin-4-yl)pyridin-2-yl)-3-hydroxypiperidin-4-yl)benzamide] |
| 2.1 nM | ≥ 10 times | – | O=C(N[C@H]1CCN(c2ccc(-c3cc(OCC(F)F)cn4nc5[nH]ncc5c34)cn2)C[C@@H]1O)c1c(F)cccc1F [Compound 296, N-((3S,4S)-1-(5-(6-(2,2-difluoroethoxy)-1H-pyrazolo[3′,4′:3,4]pyrazolo[1,5-α]pyridin-4-yl)pyridin-2-yl)-3-hydroxypiperidin-4-yl)-2,6-difluorobenzamide] |
| 4.3 nM | – | – | CCOc1cc(-c2cnc(N3CC[C@H](NC(=O)c4c(F)cccc4Cl)[C@@H](O)C3)cn2)c2c3cn[nH]c3nn2c1 [Compound 51] |
| 26.2 nM | – | – | CCOc1cc(-c2ccc(N3CCC4(CN(C(=O)c5c(F)cccc5Cl)C4)C3)nc2)c2c3cn[nH]c3nn2c1 [Compound 220, N-(6-(5-(6-ethoxy-1H-pyrazolo[3′,4′:3,4]pyrazolo[1,5-α]pyridin-4-yl)pyridin-2-yl)-2,6-diazaspiro [3.4]octan-2-yl)-2-chloro-6-fluorobenzamide] |
| 47.3 nM | – | – | CCOc1cc(-c2ccc(N3CCC4(CCCN(C(=O)c5c(F)cccc5Cl)C4)CC3)nc2)c2c3cn[nH]c3nn2c1 [Compound 214] |
| 2.2 nM | ≥ 10 times | – | CCOc1cc(-c2ccc(N3CC[C@H](NC(=O)c4ccccc4C(F)(F)F)[C@H](O)C3)nc2)c2c3cn[nH]c3nn2c1 [Compound 279, N-((3R,4S)-1-(5-(6-ethoxy-1H-pyrazolo[3′,4′:3,4]pyrazolo[1,5-α]pyridin-4-yl)pyridin-2-yl)-3-hydroxypiperidin-4-yl)-2-(trifluoromethyl)benzamide] |
| 2.9 nM | ≥ 10 times | – | CCOc1cc(-c2ccc(N3CC[C@H](NC(=O)c4c(C)cccc4Cl)[C@@H](N)C3)nc2)c2c3cn[nH]c3nn2c1 [Compound 48, N-((3S,4S)-3-amino-1-(5-(6-ethoxy-1H-pyrazolo[3′,4′:3,4]pyrazolo[1,5-α]pyridin-4-yl)pyridin-2-yl)piperidin-4-yl)-2-chloro-6-methylbenzamide] |
| 27.3 nM | – | – | CCOc1cc(-c2ccc(N3C[C@@H]4[C@H](C3)[C@H]4NC(=O)c3c(F)cccc3Cl)nc2)c2c3cn[nH]c3nn2c1 [Compound 170, 2-chloro-N-((1R,5S,6S)-3-(5-(6-ethoxy-1H-pyrazolo[3′,4′:3,4]pyrazolo[1,5-α]pyridin-4-yl)pyridin-2-yl)-3-azabicyclo[3.1.0]hexan-6-yl)-6-fluorobenzamide] |
